{"source": "patent US9556115B2", "about": "“Sulfonamides for the prevention of diabetes” (Dompé S.P.A., priority 2009, dated 2017)", "tested_on": "MLD-STZ-induced diabetes in male C57BL/6J mice", "test": "Diabetes induction after multiple low dose (MLD)-streptozotocin (STZ) injections", "format": "in vivo, mouse", "settings": "for glycemic levels after development of diabetes vs control mice / time to develop the disease compared to controls: mice injected with STZ, summary statement", "description": "Injection of susceptible mice strains with multiple low doses of (STZ) provokes a condition with clinical and histoimmunological features similar to human Type 1 diabetes mellitus (DM). It has been established that five daily doses of 40 mg/kg/day of STZ are required for delayed onset, sustained and progressive hyperglycemia and insulitis in male C57BL/6 mice.\nThis model was previously used to study the role of proinflammatory cytokines in the development of Type 1 diabetes. 12 male C57BL/6J mice received MLD-STZ treatment. STZ was injected i.p. at a dose of 40 mg/kg/day, for 5 consecutive days. Glucose concentrations in venous blood was measured every day starting from the first day of treatment. Mice with glycemia over 250 mg/dl on three consecutive tests were considered diabetic, with the first detection of hyperglycemia taken as the date of diabetes onset. The mice were monitored for up to 60 days post first STZ injection. Reparixin was administered by s.c. continuous infusion starting from day −1 up to day 7 after first STZ injection at a dose of 8 mg/h/kg.\nMale C57BL/6J mice were injected i.p. with (ML)-streptozotocin (STZ) at a dose of 40 mg/kg/day, for 5 consecutive days. Glucose concentrations in venous blood were measured every day starting from the first day of treatment (day 0). Mice with glycaemia over 250 mg/dl on three consecutive tests were considered diabetic, with the first detection of hyperglycemia taken as the date of diabetes onset. The mice were followed for up to 60 days post first STZ injection. Meraxin was administered per os at a dose of 15 mg/kg for 7 or 14 days, starting from day −1 of first STZ injection.\nIn a second set of experiments, the treatment with Meraxin for 14 days was started +5 (n=4) days after the first STZ injection to mimic the clinical setting of diabetes onset."}
{"smiles": "C[C@@H](C(=O)NS(C)(=O)=O)c1ccc(OS(=O)(=O)C(F)(F)F)cc1", "note": "[Meraxin, R(-)-2-[(4′-trifluoromethanesulfonyloxy)phenyl]propionyl-methanesulfonamide]", "values": [{"measurement": "diabetes onset", "setting": "Meraxin for 14 days started day +5 after first STZ injection (up to day 19), n=4", "value": "clearly prevented diabetes onset"}, {"measurement": "glycaemic levels vs vehicle-treated mice", "setting": "Meraxin for 14 days started day +5 after first STZ injection, whole 2-month observation period", "value": "constantly and significantly lower"}, {"measurement": "median diabetes-free time", "setting": "Meraxin per os 15 mg/kg for 7 days starting from day -1, n=8, p=0.67 vs ctrl", "value": "13+2.8 days"}, {"measurement": "median diabetes-free time", "setting": "Meraxin per os 15 mg/kg for 14 days starting from day -1, n=8, p=0.016 vs ctrl", "value": "29+16"}, {"measurement": "glycemic levels after development of diabetes vs control mice", "value": "significantly lower"}, {"measurement": "time to develop the disease compared to controls", "value": "more than double the time"}]}
{"smiles": "CC(C)Cc1ccc([C@@H](C)C(=O)NS(C)(=O)=O)cc1", "note": "[Reparixin, R(-)-2-[(4-isobutylphenyl)propionyl]-methanesulfonamide]", "values": [{"measurement": "glycaemia levels after diabetes development vs vehicle-treated group", "setting": "Reparixin s.c. continuous infusion 8 mg/h/kg day -1 to day 7, whole two-month observation period", "value": "constantly and significantly lower"}, {"measurement": "median diabetes free time", "setting": "Reparixin s.c. continuous infusion 8 mg/h/kg from day -1 up to day 7 after first STZ injection, n=8, p=0.026 vs ctrl", "value": "27 ± 15", "unit": "days"}, {"measurement": "glycemic levels after development of diabetes vs control mice", "value": "significantly lower"}, {"measurement": "time to develop the disease compared to controls", "value": "more than double the time"}]}
